{"source": "patent US9133199B2", "about": "“Pyrimidine derivatives as protein kinase inhibitors” (Cyclacel Limited, priority 2007, dated 2015)", "key": {"human PLK1": {"molecular_target": "human PLK1 (Homo sapiens (Human), UniProt P53350)", "sequence (P53350 whole entry)": "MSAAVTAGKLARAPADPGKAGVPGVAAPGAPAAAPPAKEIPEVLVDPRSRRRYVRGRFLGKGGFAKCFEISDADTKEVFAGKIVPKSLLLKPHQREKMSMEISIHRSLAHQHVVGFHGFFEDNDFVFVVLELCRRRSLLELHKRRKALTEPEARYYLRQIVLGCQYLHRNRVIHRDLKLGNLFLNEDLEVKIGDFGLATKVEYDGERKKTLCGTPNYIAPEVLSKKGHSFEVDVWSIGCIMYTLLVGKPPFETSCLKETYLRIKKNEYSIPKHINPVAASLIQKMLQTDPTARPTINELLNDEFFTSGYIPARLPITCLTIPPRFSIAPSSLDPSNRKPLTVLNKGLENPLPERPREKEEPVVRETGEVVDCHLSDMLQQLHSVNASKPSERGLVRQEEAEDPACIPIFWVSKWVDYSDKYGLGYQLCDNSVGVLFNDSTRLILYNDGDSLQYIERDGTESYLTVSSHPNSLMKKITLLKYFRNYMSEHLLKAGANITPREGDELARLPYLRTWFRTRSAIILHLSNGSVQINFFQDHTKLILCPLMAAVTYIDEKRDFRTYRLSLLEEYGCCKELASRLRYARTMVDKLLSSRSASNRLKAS", "experiment": "PLK1 protein kinase assay (CDC25C phosphorylation, [γ-32P]-ATP)", "assay_type": "biochemical", "quoted_text": "A full-length human CDC25C clone was isolated by PCR from HeLa mRNA and was inserted on a BamHI-HindIII fragment into pRsetA. The amino terminal fragment of CDC25C (encoding residues 1-300) was excised from this vector and inserted into pET28a (between the NcoI and BamHI sites). Expression was under the control of the T7 promoter, and the encoded protein contained a His6 tag at the carboxyl terminus. The vector was transformed into E. coli strain BRL(DE3) pLysS for expression experiments. CDC25C was expressed in BL21(DE3) RIL bacteria cells, grown in LB media at 37° C. until OD600 nm of 0.6 was reached. The expression was induced with 1 mM IPTG and the bacterial culture was grown further for 3 h. The bacteria were harvested by centrifugation and the cell pellet was re-suspended in 50 mM Tris pH 7.5 and 10% sucrose, flash frozen, and stored at −70° C. until used. CDC25C protein was purified from E. coli inclusion bodies. The inclusion bodies were isolated in a buffer (50 mM Tris pH 8.0, 2 mM EDTA, 100 mM NaCl, 0.5% triton X-100). After denaturation in the presence of 6 M urea, the protein was refolded via slow dialysis of the urea. The protein was stored in 25 mM Tris pH 8.0, 100 mM NaCl, 1 mM DTT, 1 mM EDTA and 10% glycerol at −70° C. until used.\nThe 3′ primer ([sequence]) incorporated a stop codon prior to the EcoR1 site. The PCR product was cloned into the Nhe1/EcoR1 sites of a baculovirus expression vector, pSSP1. […] Sf9 cells of a passage number less than 20 were split back to give a 300 mL culture volume, at a cell density of 1.5×10^6 cells/mL. Cells were only used for expression in logarithmic growth phase. PLK1 baculovirus (from P2 amplification) was added to give a multiplicity of infection of 3, this is equivalent to 3 virus particles for each insect cell. The flasks were incubated at 27° C., with shaking at 100 r.p.m. for 48 h. On harvest, cell density and viability was determined, the cultures spun down at 2500 r.p.m. for 5 min and washed with ice-cold phosphate-buffered saline. The wash was re-spun at the same speed and the pellet was snap frozen. PLK1 protein was purified on a metal affinity column.\nPLK1 protein kinase assays were carried out using a 96−well plate format by incubating CDC25C (2 μg/well) with PLK1 (1 μg/well) in 20 mM Tris/HCl buffer pH 7.5, supplemented with 25 mM β-glycerophosphate, 5 mM EGTA, 1 mM DTT and 1 mM NaVO3. Serial dilutions of test compound in assay buffer were added. Reaction was initiated by the addition of 100 μM ATP and 0.5 μCi of [γ-^32P]-ATP. The reaction mixture was incubated at 30° C. for 1 h, then stopped with 75 mM aq orthophosphoric acid, transferred onto a 96-well P81 filter plate (Whatman), dried, and the extent of CDC25C phosphorylation was assessed by scintillation counting using a Packard TopCount plate reader. The raw assay data was analysed by non-linear regression analysis parameters and IC50 values were determined using the equation: y=A+((B−A)/(1+((C/x)^D))), where y is % inhibition, A is minimum inhibition, B is maximum inhibition, C is EC50, and D is the slope factor."}, "[1]": {"experiment": "Nephelometry kinetic solubility", "assay_type": "physicochemical", "text": "If a DMSO solution of a water soluble compound is introduced into aqueous buffer, the mixture remains clear unless the aqueous solubility limit is reached. Above the solubility limit, precipitation occurs and light travelling through the turbid suspension is scattered. The measurement of the intensity of the scattered light is the basis of nephelometric solubility determination.\nSelected compounds were screened using a nephelometer to identify the concentration at which turbidity occurs, thereby giving an indication of kinetic solubility. By nephelometry (2% DMSO: 98% phosphate buffered saline pH 7.5) compound [254] was freely soluble at 200 μM (>0.11 mg/mL) which is the highest concentration tested in this assay. In contrast, in the same nephelometry assay, the maximum soluble concentration of prior art Example [I-253] of WO 07/095,188 was determined to be 75 μM (Table 6)."}, "[2]": {"experiment": "Pharmacokinetics in fasted conscious CD-1 mice (iv and oral)", "assay_type": "in vivo", "conditions": "compared to compounds A-G", "procedure": "Preliminary investigations of the pharmacokinetics of selected compounds were carried out in fasted conscious CD-1 mice (25-30 g). Compounds were dosed as 1 mg/kg by intravenous administration or 5-10 mg/kg by oral route. Twenty one male mice per administration route (n=3 mice per time point) received dose solution by single bolus injection in the tail vein or by oral gavage. Blood samples were collected by cardiac puncture at 5, 15, 30, 60, 120, 240 and 360 min following iv administration and at 30, 60, 120, 240, 360, 480 and 1440 min following oral administration. Blood samples were collected into tubes containing the anti-coagulant lithium heparin, mixed and placed promptly on crushed ice. Plasma was derived from whole blood by centrifugation, frozen and stored at −80° C. prior to analysis. Plasma concentrations were determined by liquid chromatography-tandem mass spectrometry in electrospray positive mode (ESI LC/MS/MS) using calibration curves prepared in the appropriate matrix. The lower level of quantification (LLOQ) in all cases was ca. 5 ng/mL. Plasma concentration-time data was processed using the computer program WinNonLin version 5.2 from which areas under the plasma concentration-time curve (AUCall) were calculated by non-compartmental analysis using Model 201 (IV-bolus Input) or Model 200 (Extravascular Input).\nFIG. 1 plots the area under the curve (AUC) for plasma concentration vs time for each compound tested. The dosing vehicle across these experiments remained constant (intravenous=citrate buffer pH 3, 1 mL/kg; oral=DMA/PEG400/10 mM Tartrate buffer, pH 4 (1:3:6), 5 ml/kg). FIG. 2 represents the same data in the form of oral bioavailability (% F) for each compound."}, "A2780/ADR cells": {"test_system": "A2780/ADR cells", "experiment": "Cell viability assay (Alamar Blue, 72 hours), MDR line", "assay_type": "cell-based, human", "conditions": "paired parental and MDR tumour cell lines (A2780-A2780/ADR, MES-SA-MES-SA/Dx5)", "text": "In vitro cell viability assays have been used to measure the effect of drug accumulation in paired parental and drug resistant tumour cell lines. The pairs used are the human ovarian carcinoma A2780 line with its MDR counterpart A2780/ADR and the human uterine sarcoma MES-SA line with its MDR counterpart MES-SA/Dx5 [Wesolowska O., et al. (2005) Anticancer Res., 25, 383-389].\nMethod: Cultivated human tumour cells of the ovarian cell line A2780 and its doxorubicin-resistant pair, A2780/ADR and the uterine cell line MES-SA and its doxorubicin-resistant pair, MES-SA/DX5 were seeded at 3000 cells per well in Nunc 96-well tissue culture plates, 100 μl per well in DMEM media containing 10% foetal calf serum and penicillin/streptomycin. […] The plates were then read at 544/595 nm.\nThe amount of Alamar Blue reagent reacted represents the metabolic activity of the cells. […] The values were calculated from the average of three individual measurements with blank correction (medium-only control).\nThe assay was performed on the Biomek FxP, automation platform from Beckman Coulter. The plates were read on the Paradigm plate reader supplied by Beckman Coulter. Asymmetry ratios were calculated as the IC50 value of the compound in the drug resistant cells divided by the IC50 value in the parental cells. […]"}, "PLK2": {"molecular_target": "PLK2 (Homo sapiens (Human), UniProt Q9NYY3)", "sequence (Q9NYY3 whole entry)": "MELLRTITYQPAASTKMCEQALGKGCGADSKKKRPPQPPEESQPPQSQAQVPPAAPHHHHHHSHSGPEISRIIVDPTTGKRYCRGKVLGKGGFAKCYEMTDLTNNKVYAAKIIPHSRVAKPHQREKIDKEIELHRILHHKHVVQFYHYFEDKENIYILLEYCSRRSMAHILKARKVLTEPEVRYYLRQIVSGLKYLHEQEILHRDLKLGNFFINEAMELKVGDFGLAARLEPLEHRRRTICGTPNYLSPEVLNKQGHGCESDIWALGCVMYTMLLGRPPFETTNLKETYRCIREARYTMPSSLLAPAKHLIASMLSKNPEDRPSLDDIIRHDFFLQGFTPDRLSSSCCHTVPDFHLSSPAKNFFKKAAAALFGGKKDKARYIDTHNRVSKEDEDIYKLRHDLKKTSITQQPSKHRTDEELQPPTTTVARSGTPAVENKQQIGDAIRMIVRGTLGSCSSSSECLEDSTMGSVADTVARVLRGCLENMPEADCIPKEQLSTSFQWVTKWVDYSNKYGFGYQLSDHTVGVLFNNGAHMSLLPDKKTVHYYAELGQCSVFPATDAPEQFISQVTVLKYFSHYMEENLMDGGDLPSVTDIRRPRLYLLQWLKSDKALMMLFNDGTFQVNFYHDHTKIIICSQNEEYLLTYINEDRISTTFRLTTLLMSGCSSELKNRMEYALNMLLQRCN", "experiment": "PLK selectivity: PLK2 inhibition", "assay_type": "biochemical", "conditions": "for PLK2 IC50/PLK1 IC50: selectivity ratio"}, "PLK3": {"molecular_target": "PLK3 (Homo sapiens (Human), UniProt Q9H4B4)", "sequence (Q9H4B4 whole entry)": "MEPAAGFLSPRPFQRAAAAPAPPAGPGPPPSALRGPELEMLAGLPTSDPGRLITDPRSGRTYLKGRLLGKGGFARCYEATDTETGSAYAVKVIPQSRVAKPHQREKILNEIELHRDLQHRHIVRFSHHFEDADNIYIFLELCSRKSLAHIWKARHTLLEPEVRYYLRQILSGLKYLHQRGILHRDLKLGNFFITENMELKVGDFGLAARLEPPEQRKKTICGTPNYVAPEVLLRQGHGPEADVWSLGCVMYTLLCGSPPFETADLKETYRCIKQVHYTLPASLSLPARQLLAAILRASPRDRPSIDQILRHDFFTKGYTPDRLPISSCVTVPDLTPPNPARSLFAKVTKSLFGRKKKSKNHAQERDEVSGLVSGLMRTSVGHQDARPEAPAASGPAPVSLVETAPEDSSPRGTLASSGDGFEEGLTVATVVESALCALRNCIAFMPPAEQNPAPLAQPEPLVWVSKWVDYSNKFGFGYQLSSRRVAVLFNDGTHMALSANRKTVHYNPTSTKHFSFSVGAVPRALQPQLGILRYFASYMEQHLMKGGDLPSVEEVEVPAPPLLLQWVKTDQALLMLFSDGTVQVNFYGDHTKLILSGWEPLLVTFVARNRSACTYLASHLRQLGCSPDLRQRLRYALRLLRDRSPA", "experiment": "PLK selectivity: PLK3 inhibition", "assay_type": "biochemical", "conditions": "for PLK3 IC50/PLK1 IC50: selectivity ratio"}, "[3]": {"conditions": "phosphate buffered saline with 2% DMSO, pH 7.5, aqueous buffer, kinetic from dmso stock, 2% DMSO: 98% phosphate buffered saline pH 7.5, highest concentration tested 200 μM, read-out: Nephelometry maximum soluble concentration"}}, "note": "Structures can show the parent of a compound that is named as a salt. Where two headings read alike, the source gives them in different places.", "data": [{"smiles": "COc1cc(C(=O)NC2c3ccccc3C[C@H]2O)ccc1Nc1ncc2c(n1)N(C1CCCC1)CC1(CC1)C(=O)N2C", "note": "(stereo partly drawn) [Compound 184, 4-(9-Cyclopentyl-5-methyl-6-oxo-6,7,8,9-tetrahydro-5H-spiro[pyrimido[4,5-b] [1,4]diazepin-3,1′-cyclopropane]-2-ylamino)-N-((1S,2R)-2-hydroxy-indan-1-yl)-3-methoxy-benzamide]", "values": [{"measurement": "IC50", "setting": "human PLK1; Table 2", "result": "< 1000", "unit": "nM"}]}, {"smiles": "COc1cc(C(=O)NN2CCN(C)CC2)ccc1Nc1ncc2c(n1)N(C1CCCC1)CC1(CC1)C(=O)N2C", "note": "[Compound 254, 4-(9′-cyclopentyl-5′-methyl-6′-oxo-5′,6′,8′,9′-tetrahydrospiro[cyclopropane-1,7′-pyrimido[4,5-b][1,4]diazepine]-2′-ylamino)-3-methoxy-N-(4-methylpiperazin-1-yl)benzamide]", "values": [{"measurement": "solubility", "setting": "[1]; [3]", "result": "≥ 200", "unit": "µM"}, {"measurement": "solubility", "setting": "[1]; phosphate buffered saline with 2% DMSO, pH 7.5, aqueous buffer, kinetic from dmso stock, 2% DMSO: 98% phosphate buffered saline pH 7.5, read-out: Nephelometry soluble concentration", "result": "> 110", "unit": "µg/mL"}]}, {"smiles": "COc1cc(C(=O)NC2CCN(C)CC2)ccc1Nc1ncc2c(n1)N(C(C)C)CC1(CC1)C(=O)N2C", "note": "[Compound 99, 4-(9-Isopropyl-5-methyl-6-oxo-6,7,8,9-tetrahydro-5H-spiro[pyrimido[4,5-b] [1,4]diazepin-3,1′-cyclopropane]-2-ylamino)-3-methoxy-N-(1-methyl-piperidin-4-yl)-benzamide]", "values": [{"measurement": "IC50", "setting": "human PLK1; Table 2", "result": "< 1000", "unit": "nM"}]}, {"smiles": "COc1cc(C(=O)N[C@H]2CC[C@H](N3CCN(CC4CC4)CC3)CC2)ccc1Nc1ncc2c(n1)N(C1CCCC1)CCC(=O)N2C", "note": "[Compound 378, 4-(9-cyclopentyl-5-methyl-6-oxo-6,7,8,9-tetrahydro-5H-pyrimido[4,5-b][1,4]diazepin-2-ylamino)-N-((trans)-4-(4-(cyclopropylmethyl)piperazin-1-yl)cyclohexyl)-3-methoxybenzamide]", "values": [{"measurement": "oral bioavailability (% F)", "setting": "[2]", "result": "markedly superior"}, {"measurement": "systemic exposure (AUC of plasma concentration vs time)", "setting": "[2]; iv 1 mg/kg and oral 5-10 mg/kg", "result": "markedly superior"}]}, {"smiles": "COc1cc(C(=O)N[C@H]2CC[C@H](N3CCN(CC4CC4)CC3)CC2)ccc1Nc1ncc2c(n1)N(C1CCCC1)CC(C)(C)C(=O)N2C", "note": "[Compound 372, 4-(9-cyclopentyl-5,7,7-trimethyl-6-oxo-6,7,8,9-tetrahydro-5H-pyrimido[4,5-b][1,4]diazepin-2-ylamino)-N-((trans)-4-(4-(cyclopropylmethyl)piperazin-1-yl)cyclohexyl)-3-methoxybenzamide]", "values": [{"measurement": "cellular efflux (MDR/parental cell asymmetry)", "setting": "A2780/ADR cells", "result": "low cellular efflux"}]}, {"smiles": "COc1cc(C(=O)NC2CCN(C)CC2)ccc1Nc1ncc2c(n1)N(C1CCCC1)CC1(CC1)C(=O)N2C", "note": "[WO 2007/095188 [I-76], reference compound]", "values": [{"measurement": "PLK2 IC50/PLK1 IC50", "setting": "PLK2", "result": 6}, {"measurement": "PLK3 IC50/PLK1 IC50", "setting": "PLK3", "result": 26}]}, {"smiles": "CN1C(=O)CCN(C2CCCC2)c2nc(NCc3ccsc3)ncc21", "note": "[Compound 106, 9-Cyclopentyl-5-methyl-2-[(thiophen-3-ylmethyl)-amino]-5,7,8,9-tetrahydro-pyrimido[4,5-b][1,4]di-azepin-6-one]", "values": [{"measurement": "IC50", "setting": "human PLK1; Table 2", "result": "< 1000", "unit": "nM"}]}, {"smiles": "COc1cc(C(=O)NC2CCN(C)CC2)ccc1Nc1ncc2c(n1)N(C1CCCC1)CC1(CCC1)C(=O)N2C", "note": "[WO 2007/095188 [I-64], reference compound]", "values": [{"measurement": "PLK2 IC50/PLK1 IC50", "setting": "PLK2", "result": 17}, {"measurement": "PLK3 IC50/PLK1 IC50", "setting": "PLK3", "result": 67}]}, {"smiles": "COc1cc(C(=O)N[C@H]2CC[C@@H](N3CCOCC3)CC2)ccc1Nc1ncc2c(n1)N(C1CCCC1)CC1(CC1)C(=O)N2C", "note": "[Compound 391, 4-(9′-cyclopentyl-5′-methyl-6′-oxo-5′,6′,8′,9′-tetrahydrospiro[cyclopropane-1,7′-pyrimido[4,5-b][1,4]diazepine]-2′-ylamino)-3-methoxy-N-((cis)-4-morpholinocyclohexyl)benzamide]", "values": [{"measurement": "IC50", "setting": "human PLK1; Table 3, read-out: PLK 1 IC50", "result": "100 to 1000", "unit": "nM"}]}, {"smiles": "COc1cc(C(=O)NCC2CCCCN2C)ccc1Nc1ncc2c(n1)N(C1CCCC1)CCC(=O)N2C", "note": "(centres unmarked) [Compound 202, 4-(9-Cyclopentyl-5-methyl-6-oxo-6,7,8,9-tetrahydro-5H-pyrimido[4,5-b] [1,4]diazepin-2-ylamino)-3-methoxy-N-(1-methyl-piperidin-2-ylmethyl)-benzamide]", "values": [{"measurement": "IC50", "setting": "human PLK1; Table 2", "result": "< 1000", "unit": "nM"}]}, {"smiles": "COc1cc(C(=O)NC2CN3CCC2CC3)ccc1Nc1ncc2c(n1)N(C1CCCC1)CC1(CCC1)C(=O)N2C", "note": "(racemic) [Compound 218, (±)-4-(9′-cyclopentyl-5′-methyl-6′-oxo-5′,6′,8′,9′-tetrahydrospiro[cyclobutane-1,7′-pyrimido[4,5-b][1,4]diazepine]-2′-ylamino)-3-methoxy-N-(quinuclidin-3-yl)benzamide]", "values": [{"measurement": "selectivity for PLK1 versus PLK2 compared to compound [I-4]", "setting": "PLK2; relative to [I-4]", "result": 7, "unit": "fold"}, {"measurement": "selectivity for PLK1 versus PLK2 compared to compound [I-64] of WO 07/095,188", "setting": "PLK2; relative to [I-64]", "result": "twice as selective"}, {"measurement": "selectivity for PLK1 versus PLK2 compared to compound [I-76]", "setting": "PLK2; relative to [I-76]", "result": "~6", "unit": "fold"}, {"measurement": "PLK2 IC50/PLK1 IC50", "setting": "PLK2", "result": 35}, {"measurement": "selectivity for PLK1 versus PLK3 compared to compound [I-4]", "setting": "PLK3; relative to [I-4]", "result": 5, "unit": "fold"}, {"measurement": "selectivity for PLK1 versus PLK3 compared to compound [I-64]", "setting": "PLK3; relative to [I-64]", "result": 5, "unit": "fold"}, {"measurement": "selectivity for PLK1 versus PLK3 compared to compound [I-76]", "setting": "PLK3; relative to [I-76]", "result": "~12", "unit": "fold"}, {"measurement": "PLK3 IC50/PLK1 IC50", "setting": "PLK3", "result": 330}]}, {"smiles": "CCN(CC)CCNC(=O)c1ccc(Nc2ncc3c(n2)N(CC2CC2)CCC(=O)N3C)c(OC)c1", "note": "[Compound 240, 4-(9-Cyclopropyl-methyl-5-methyl-6-oxo-6,7,8,9-tetrahydro-5H-pyrimido[4,5-b] [1,4]diazepin-2-ylamino)-N-(2-diethylamino-ethyl)-3-methoxy-benzamide]", "values": [{"measurement": "IC50", "setting": "human PLK1; Table 2", "result": "< 100", "unit": "nM"}]}, {"smiles": "COc1cc(C(=O)NN2CCCC2)ccc1Nc1ncc2c(n1)N(C1CCCC1)CC1(CC1)C(=O)N2C", "note": "[Example [I-253] of WO 07/095188, reference compound]", "values": [{"measurement": "solubility", "setting": "[1]; [3]", "result": 75, "unit": "µM"}]}, {"smiles": "COc1cc(C(=O)NC2CCC(N3CCCN(Cc4ccccc4)CC3)CC2)ccc1Nc1ncc2c(n1)N(C1CCCC1)CC1(CC1)C(=O)N2C", "note": "(centres unmarked) [Compound 383, N-(4-(4-benzyl-1,4-diazepan-1-yl)cyclohexyl)-4-(9′-cyclopentyl-5′-methyl-6′-oxo-5′,6′,8′,9′-tetrahydrospiro[cyclopropane-1,7′-pyrimido[4,5-b][1,4]diazepine]-2′-ylamino)-3-methoxybenzamide]", "values": [{"measurement": "IC50", "setting": "human PLK1; Table 3, read-out: PLK 1 IC50", "result": "< 100", "unit": "nM"}]}, {"smiles": "COc1cc(C(=O)NN2CCN(C)CC2)ccc1Nc1ncc2c(n1)N(C1CCCC1)CC1(CC1)C(=O)N2C", "note": "[[254]•HCl, 4-(9′-cyclopentyl-5′-methyl-6′-oxo-5′,6′,8′,9′-tetrahydrospiro[cyclopropane-1,7′-pyrimido[4,5-b][1,4]diazepine]-2′-ylamino)-3-methoxy-N-(4-methylpiperazin-1-yl)benzamide•HCl]", "values": [{"measurement": "solubility", "setting": "[1]; pH 7.5, read-out: Nephelometry maximum soluble concentration", "result": ">200", "unit": "µM"}]}]}
